{
  "source": "patent US20110111022A1",
  "about": "“PHARMACEUTICAL FORMULATION” (priority 2008, published 2011)",
  "origin": "cited, not measured here",
  "key": {"[1]": {"settings": "concurrent administration of aliskiren and irbesartan"}, "[2]": {"target": "hepatic cytochrome P450 3A4 (Homo sapiens, UniProt P08684)", "sequence (P08684 whole entry)": "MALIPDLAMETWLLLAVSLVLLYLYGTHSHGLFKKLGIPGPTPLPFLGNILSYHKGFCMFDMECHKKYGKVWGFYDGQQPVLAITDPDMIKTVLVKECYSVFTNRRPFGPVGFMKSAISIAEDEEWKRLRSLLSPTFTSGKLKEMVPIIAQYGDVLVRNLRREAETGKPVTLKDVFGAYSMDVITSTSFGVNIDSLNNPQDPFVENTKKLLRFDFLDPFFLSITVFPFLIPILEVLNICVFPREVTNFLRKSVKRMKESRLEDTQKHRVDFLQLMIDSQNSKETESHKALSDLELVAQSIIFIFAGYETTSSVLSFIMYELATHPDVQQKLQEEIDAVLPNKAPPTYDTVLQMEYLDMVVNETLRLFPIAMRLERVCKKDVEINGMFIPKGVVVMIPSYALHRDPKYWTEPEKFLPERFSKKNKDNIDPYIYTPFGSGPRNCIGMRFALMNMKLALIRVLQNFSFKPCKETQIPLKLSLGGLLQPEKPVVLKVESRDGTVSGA"}},
  "data": [
    {"compound": "COCCCOc1cc(C[C@@H](C[C@H](N)[C@@H](O)C[C@H](C(=O)NCC(C)(C)C(N)=O)C(C)C)C(C)C)ccc1OC", "note": "[aliskiren, 2(S),4(S),5(S),7(S)—N-(3-amino-2,2-dimethyl-3-oxopropyl)-2,7-di(1-methylethyl)-4-hydroxy-5-amino-8-[4-methoxy-3-(3-methoxy-propoxy)phenyl]-octanamide]", "values": [
      {"measurement": "decrease in blood aliskiren level", "setting": "[1]", "value": 50, "unit": "%"},
      {"measurement": "metabolism in in vitro experiments", "setting": "[2]", "value": "metabolized by hepatic cytochrome P450 3A4"},
      {"measurement": "solubility in water", "value": "easily soluble in water"}
    ]}
  ]
}
